Patent publication US9663486B2, “Selectively substituted quinoline compounds” (EISAI R&D MANAGEMENT CO., LTD., priority 2013, dated 2017)
pIC50: −log10 of the molar value.

Tests used:
Human TLR7/8 = experiment: Human PBMC cell-based assay, TLR7/8 (RNA-Ig), cytokine ELISA; conditions: PBMC assay data summary; ligand and analyte not given; read-out: Human PBMCs IC50
Method: Human peripheral blood mononuclear cells (PBMC) were isolated from freshly-drawn heparinized (10 USP units/ml, Hospira, Lakeforest, Ill.) healthy donor whole blood by density gradient (Histopaque® 1077, Sigma, Inc., St. Louis, Mo.). Briefly, 25 ml blood was diluted with 15 ml PBS (without Ca^2+, Mg^2+) in a 50 ml conical tube, and 12 ml Histopaque was underlaid using a spinal needle. Tubes were centrifuged for 45 minutes at 1200 rpm (350×g), and PBMC were collected from the buffy coat. Cells were then washed twice in PBS, and red blood cells were lysed by suspension in 5 ml ammonium chloride solution (1× Red Blood Cell Lysis Buffer, eBioscience) for 5 minutes at room temperature. After a final wash in PBS, PBMC were resuspended at a final concentration of 2×10^6/ml in RPMI-1640 media with L-glutamine (Invitrogen) and supplemented with 25 mM HEPES (Mediatech, Inc, Manassas Va.), 10% fetal bovine serum (HyClone, Logan, Utah), and Penicillin-Streptomycin-Glutamine (Mediatech) and plated at 100 ul/well (2×10^5 cells/well) in tissue culture treated 96-well plates (Falcon).
Antagonist compounds solubilized and serial diluted in 100% DMSO were added in triplicate to cells to yield a final concentration of 0.1% DMSO (v/v). Hydroxychloroquine (Acros Organics) solubilized and serial diluted in PBS was added in triplicate to cells. PBMC were incubated with antagonist compounds or HCQ for 30 minutes at 37° C., 5% CO2 before adding various TLR agonist reagents in 100 ul complete media per well as follows (final concentrations indicated): R848 (Resiquimod; GLSynthesis, Worcester, Mass.) at 1 uM for TLR7 and TLR8, Pam3CSK4 (InvivoGen) at 50 ng/ml for TLR1/2, LPS (Sigma) at 10 ng/ml for TLR4, and CpG-2216 (InvivoGen) at 5 ug/ml for TLR9. […] The resulting “RNA-Ig” stimulus was incubated at room temperature for 15-30 minutes before adding to cells. PBMC were incubated with the various TLR agonists for 20 hours at 37° C., 5% CO2. Cell culture supernatants were collected, and levels of various human cytokines were assessed as indicated by standard ELISA procedure according to the manufacturer's recommended protocol (BD Biosciences, Inc., San Diego, Calif.).

mouse TLR7 = target: T1, mouse TLR7 (Mus musculus, UniProt P58681); experiment: Short-term in vivo (STIV) assay, plasma IL-6 after R848; conditions: plasma IL-6 after R848 s.c., BALB/c mice
T1 construct: tissue Jackson Labs; host or cells: live female BALB/c mice
T1 sequence (P58681 27-1050): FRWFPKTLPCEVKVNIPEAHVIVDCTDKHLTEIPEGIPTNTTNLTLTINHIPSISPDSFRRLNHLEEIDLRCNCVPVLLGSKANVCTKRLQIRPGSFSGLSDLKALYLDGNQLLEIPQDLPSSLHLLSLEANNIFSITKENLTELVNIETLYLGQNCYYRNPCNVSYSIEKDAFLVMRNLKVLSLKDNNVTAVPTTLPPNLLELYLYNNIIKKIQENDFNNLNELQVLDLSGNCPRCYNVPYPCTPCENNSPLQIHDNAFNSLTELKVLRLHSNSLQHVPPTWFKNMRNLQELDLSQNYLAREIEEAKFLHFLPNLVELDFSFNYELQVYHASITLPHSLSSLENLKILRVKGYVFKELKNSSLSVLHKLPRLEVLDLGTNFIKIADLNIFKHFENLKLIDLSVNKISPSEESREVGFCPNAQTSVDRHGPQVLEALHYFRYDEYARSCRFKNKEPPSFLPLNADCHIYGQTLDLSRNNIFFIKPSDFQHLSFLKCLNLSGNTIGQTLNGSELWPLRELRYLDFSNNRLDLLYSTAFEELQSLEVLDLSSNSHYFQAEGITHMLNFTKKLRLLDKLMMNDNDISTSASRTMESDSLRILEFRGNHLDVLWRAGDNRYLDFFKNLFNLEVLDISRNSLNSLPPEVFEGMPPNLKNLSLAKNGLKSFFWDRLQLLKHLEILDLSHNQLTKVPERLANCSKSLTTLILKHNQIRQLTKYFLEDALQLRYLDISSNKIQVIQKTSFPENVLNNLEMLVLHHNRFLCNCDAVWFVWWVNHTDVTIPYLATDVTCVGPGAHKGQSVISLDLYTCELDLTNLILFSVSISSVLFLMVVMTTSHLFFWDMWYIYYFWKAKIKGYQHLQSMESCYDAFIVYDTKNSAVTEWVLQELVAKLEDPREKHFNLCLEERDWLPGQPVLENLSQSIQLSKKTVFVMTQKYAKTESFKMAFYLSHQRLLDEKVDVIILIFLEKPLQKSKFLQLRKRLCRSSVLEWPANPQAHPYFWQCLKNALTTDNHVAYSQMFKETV
Method: To assess compound potency in vivo against mouse TLR7, a short-term in vivo (STIV) assay was utilized. Briefly, mice were orally dosed with compounds and at various time points afterwards were injected subcutaneously with agonist R848 to stimulate TLR7. The plasma IL-6 level following R848 stimulation was then measured by ELISA to assess compound potency and duration-of-action. […] Therefore, the activity of compounds in the STIV assay can be confidently attributed to their modulation of the TLR7 pathway.
Six to eight week old female BALB/c mice (Jackson Labs, Bar Harbor, Me.) were dosed by oral gavage in 200 ul volume with antagonist compounds formulated in 0.5% aqueous methyl-cellulose (Sigma, St. Louis, Mo.). At various time points afterwards, mice were injected subcutaneously (s.c.) in 100 ul volume with 15 ug R848 (Resiquimod; GLSynthesis, Worcester, Mass.) to stimulate TLR7. Blood plasma was collected by cardiac puncture, and levels of IL-6 at 1.5 hours after TLR7 stimulation were then assessed by standard ELISA procedure according to the manufacturer's recommended protocol (R&D Systems).

[1] = 13 hr after oral dose, 33 mg/kg
[2] = 13 hr after oral dose, 100 mg/kg
[3] = 13 hr after oral dose, 300 mg/kg
[4] = 24 hr after oral dose, 100 mg/kg
[5] = 24 hr after oral dose, 300 mg/kg

| SMILES | pIC50 (Human TLR7/8) | also measured |
| --- | --- | --- |
| C[C@H]1C[C@@H](N(C)C)CN(c2ccc(C#N)c3ncccc23)C1 [ER-889591] | 7.38 | – |
| CC1(C)C[C@@H](N)CN(c2ccc(C#N)c3ncccc23)C1 [ER-895386] | 7.77 | – |
| CC(=O)NC1CC(C)CN(c2ccc(C#N)c3ncccc23)C1 (stereo not drawn) [ER-896310] | 7.20 | – |
| CC1CC(O)CN(c2ccc(C#N)c3ncccc23)C1 (stereo not drawn) [ER-896464] | 8.22 | – |
| CN[C@@H]1C[C@H](C)CN(c2ccc(C#N)c3ncccc23)C1 [ER-897184] | 8.40 | – |
| CC1CC(NC(=O)CN)CN(c2ccc(C#N)c3ncccc23)C1 (stereo not drawn) [ER-897274] | 8.15 | – |
| COCCNC1CC(C)CN(c2ccc(C#N)c3ncccc23)C1 (stereo not drawn) [ER-897275] | 8.22 | – |
| CNCC(=O)NC1CC(C)CN(c2ccc(C#N)c3ncccc23)C1 (stereo not drawn) [ER-897608] | 8.30 | % Suppression vs. Vehicle (mouse TLR7; 6 h after oral dose, 33 mg/kg): 98%; % Suppression vs. Vehicle (mouse TLR7; [1]): 56%; % Suppression vs. Vehicle (mouse TLR7; [2]): 84%; % Suppression vs. Vehicle (mouse TLR7; [3]): 98%; % Suppression vs. Vehicle (mouse TLR7; 24 hr after oral dose, 33 mg/kg): 35%; % Suppression vs. Vehicle (mouse TLR7; [4]): 22%; % Suppression vs. Vehicle (mouse TLR7; [5]): 95% |
| CC1CC(NC(=O)CO)CN(c2ccc(C#N)c3ncccc23)C1 (stereo not drawn) [ER-897971] | 8.30 | – |
| CC1CC(NC(=O)C(O)C(C)C)CN(c2ccc(C#N)c3ncccc23)C1 (stereo not drawn) [ER-897972] | 7.77 | – |
| CC1CC(NC(=O)c2cccc(O)c2)CN(c2ccc(C#N)c3ncccc23)C1 (stereo not drawn) [ER-897973] | 7.96 | – |
| CC1CC(NC(=O)CS(C)(=O)=O)CN(c2ccc(C#N)c3ncccc23)C1 (stereo not drawn) [ER-897978] | 7.85 | – |
| CC1CC(NC(=O)C(N)C(C)C)CN(c2ccc(C#N)c3ncccc23)C1 (stereo not drawn) [ER-897987] | 7.92 | – |
| COCC(N)C(=O)NC1CC(C)CN(c2ccc(C#N)c3ncccc23)C1 (stereo not drawn) [ER-897990] | 8.52 | – |
| CC(C)CC(N)C(=O)NC1CC(C)CN(c2ccc(C#N)c3ncccc23)C1 (stereo not drawn) [ER-897998] | 8.70 | – |
| CC(C)CC(N)C(=O)NC1CC(C)CN(c2ccc(C#N)c3ncccc23)C1 (stereo not drawn) [ER-897999] | 8.70 | – |
| CNC(C(=O)NC1CC(C)CN(c2ccc(C#N)c3ncccc23)C1)C(C)C (stereo not drawn) [ER-898334] | 8.10 | – |
| CC1CC(NC(=O)C(N)c2ccccc2)CN(c2ccc(C#N)c3ncccc23)C1 (stereo not drawn) [ER-898350] | 7.70 | – |
| CC1CC(NC(=O)C(N)Cc2cccnc2)CN(c2ccc(C#N)c3ncccc23)C1 (stereo not drawn) [ER-898360] | 7.96 | – |
| CC1CC(NC(=O)C2(C)COC2)CN(c2ccc(C#N)c3ncccc23)C1 (stereo not drawn) [ER-899072] | 8.10 | % Suppression vs. Vehicle (mouse TLR7; 6 h after oral dose, 100 mg/kg): 94%; % Suppression vs. Vehicle (mouse TLR7; [1]): 34%; % Suppression vs. Vehicle (mouse TLR7; [2]): 72%; % Suppression vs. Vehicle (mouse TLR7; [3]): 100%; % Suppression vs. Vehicle (mouse TLR7; [4]): 0%; % Suppression vs. Vehicle (mouse TLR7; [5]): 78% |
| C[C@H]1C[C@@H](NC(=O)C2(N)COC2)CN(c2ccc(C#N)c3ncccc23)C1 [ER-899350] | 7.17 | – |
| CCOC(=O)CNC1CC(C)CN(c2ccc(C#N)c3ncccc23)C1 (stereo not drawn) [ER-899504] | 7.09 | – |
| CCOC(=O)CN(CC(=O)OCC)C1CC(C)CN(c2ccc(C#N)c3ncccc23)C1 (stereo not drawn) [ER-899505] | 6.90 | – |
| CC1CC(NC2COC2)CN(c2ccc(C#N)c3ncccc23)C1 (stereo not drawn) [ER-899541] | 7.82 | % Suppression vs. Vehicle (mouse TLR7; 6 h after oral dose, 100 mg/kg): 97%; % Suppression vs. Vehicle (mouse TLR7; [2]): 92% |
| CC1CC(NC2CCOC2)CN(c2ccc(C#N)c3ncccc23)C1 (stereo not drawn) [ER-899544] | 8.30 | % Suppression vs. Vehicle (mouse TLR7; 6 h after oral dose, 100 mg/kg): 97%; % Suppression vs. Vehicle (mouse TLR7; [2]): 94% |
| C[C@H]1C[C@@H](NCc2ncco2)CN(c2ccc(C#N)c3ncccc23)C1 [ER-899551] | 7.62 | – |
| C[C@H]1C[C@@H](NCc2cn(C)cn2)CN(c2ccc(C#N)c3ncccc23)C1 [ER-899552] | 6.98 | – |
| C[C@H]1C[C@@H](NS(=O)(=O)CCN)CN(c2ccc(C#N)c3ncccc23)C1 [ER-899669] | 8.05 | – |
| C[C@H]1C[C@@H](NS(=O)(=O)CCCN(C)C)CN(c2ccc(C#N)c3ncccc23)C1 [ER-899672] | 8.52 | % Suppression vs. Vehicle (mouse TLR7; 6 h after oral dose, 100 mg/kg): 89%; % Suppression vs. Vehicle (mouse TLR7; [2]): 83% |
